Row | melting point [°C] | Structure (SMILES)
1 | 199 | N#CCOc1ccc(CN2C(=O)c3cccc(NC(=O)c4ccc(Cl)s4)c3C2=O)cc1 [Example 6, 5-Chloro-N-{2-[4-(cyanomethoxy)benzyl]-1,3-dioxo-2,3-dihydro-1H-isoindol-4-yl}-2-thiophenecarboxamide]
2 | 88 | CC(C#N)Oc1cccc(CN2C(=O)c3cccc(NC(=O)c4ccc(Cl)s4)c3C2=O)c1 (centres unmarked) [Example 7, 5-Chloro-N-{2-[3-(1-cyanoethoxy)benzyl]-1,3-dioxo-2,3-dihydro-1H-isoindol-4-yl}-2-thiophenecarboxamide]
